How the values were obtained:
Rattus norvegicus [1] = species: Rattus norvegicus; assay type: toxicity, organism-based, Sprague-Dawley; details: in vivo, po, 17 mg/kg, 24 h, route oral GAVAGE, dose level High, time 1 day, vehicle .5 % CMC
Description: DrugMatrix - Regimen: Single

Rattus norvegicus [2] = species: Rattus norvegicus; assay: DrugMatrix - Regimen: Daily Repeat; assay type: toxicity, organism-based, Sprague-Dawley; parameters: regimen Daily Repeat, gender Male, age 6-8 weeks; details: in vivo, po, 17 mg/kg, 72 h, route oral GAVAGE, dose level High, time 3 day, vehicle .5 % CMC

Structure (SMILES): COc1ccc(C(=O)Nc2c(Cl)cncc2Cl)cc1OC1CCCC1
- ABSOLUTE EOSINOPHIL (Rattus norvegicus [1]; tissue Blood): 176.33 CELLS/uL
- ABSOLUTE LYMPHOCYTE (Rattus norvegicus [1]; tissue Blood): 11028.33 CELLS/uL
- ABSOLUTE MONOCYTE (Rattus norvegicus [1]; tissue Blood): 409.33 CELLS/uL
- ABSOLUTE SEGMENTED NEUTROPHIL (Rattus norvegicus [1]; tissue Blood): 1619.33 CELLS/uL
- BASOPHIL (Rattus norvegicus [1]; tissue Blood): 0%
- EOSINOPHIL (Rattus norvegicus [1]; tissue Blood): 1.33%
- ERYTHROCYTE COUNT (Rattus norvegicus [1]; tissue Blood): 5.33 x10E6/uL
- HEMATOCRIT (Rattus norvegicus [1]; tissue Blood): 33.03%
- HEMOGLOBIN (Rattus norvegicus [1]; tissue Blood): 12.1 G/DL
- LEUKOCYTE COUNT (Rattus norvegicus [1]; tissue Blood): 13.23 x10E3/uL
- LYMPHOCYTE (Rattus norvegicus [1]; tissue Blood): 83.33%
- MEAN CORPUSCULAR HEMOGLOBIN (Rattus norvegicus [1]; tissue Blood): 22.7 pg
- MEAN CORPUSCULAR HEMOGLOBIN CONCENTRATION (Rattus norvegicus [1]; tissue Blood): 36.67 G/DL
- MEAN CORPUSCULAR VOLUME (Rattus norvegicus [1]; tissue Blood): 61.9 fL
- MONOCYTE (Rattus norvegicus [1]; tissue Blood): 3%
- NEUTROPHIL (Rattus norvegicus [1]; tissue Blood): 12.33%
- NUCLEATED RED BLOOD CELLS (Rattus norvegicus [1]; tissue Blood): 0 /100WBC
- PLATELET COUNT (Rattus norvegicus [1]; tissue Blood): 1139 x10E3/uL
- ALANINE AMINOTRANSFERASE (Rattus norvegicus [1]; tissue Plasma): 61.33 u/L
- ALBUMIN (Rattus norvegicus [1]; tissue Plasma): 4.37 G/DL
- ALKALINE PHOSPHATASE (Rattus norvegicus [1]; tissue Plasma): 327.67 u/L
- ASPARTATE AMINOTRANSFERASE (Rattus norvegicus [1]; tissue Plasma): 116 u/L
- BLOOD UREA NITROGEN (Rattus norvegicus [1]; tissue Plasma): 15.67 mg/dL
- CARBON DIOXIDE (Rattus norvegicus [1]; tissue Plasma): 34.33 mmol/L
- CHLORIDE (Rattus norvegicus [1]; tissue Plasma): 101.33 MEQ/L
- CHOLESTEROL (Rattus norvegicus [1]; tissue Plasma): 76 mg/dL
- CREATININE (Rattus norvegicus [1]; tissue Plasma): 0.2 mg/dL
- GLUCOSE (Rattus norvegicus [1]; tissue Plasma): 153.67 mg/dL
- LACTATE DEHYDROGENASE (Rattus norvegicus [1]; tissue Plasma): 163.33 u/L
- LIPASE (Rattus norvegicus [1]; tissue Plasma): 9 u/L
- PHOSPHORUS (Rattus norvegicus [1]; tissue Plasma): 12.6 mg/dL
- POTASSIUM (Rattus norvegicus [1]; tissue Plasma): 6.66 MEQ/L
- SODIUM (Rattus norvegicus [1]; tissue Plasma): 148.6 MEQ/L
- TOTAL BILIRUBIN (Rattus norvegicus [1]; tissue Plasma): 0.2 mg/dL
- TOTAL PROTEIN (Rattus norvegicus [1]; tissue Plasma): 6.3 G/DL
- URIC ACID (Rattus norvegicus [1]; tissue Plasma): 1.2 mg/dL
- ABSOLUTE BASOPHIL (Rattus norvegicus [2]; tissue Blood): 0 CELLS/uL
- ABSOLUTE EOSINOPHIL (Rattus norvegicus [2]; tissue Blood): 110.33 CELLS/uL
- ABSOLUTE LYMPHOCYTE (Rattus norvegicus [2]; tissue Blood): 17172 CELLS/uL
- ABSOLUTE MONOCYTE (Rattus norvegicus [2]; tissue Blood): 305.67 CELLS/uL
- ABSOLUTE SEGMENTED NEUTROPHIL (Rattus norvegicus [2]; tissue Blood): 3612 CELLS/uL
- BASOPHIL (Rattus norvegicus [2]; tissue Blood): 0%
- EOSINOPHIL (Rattus norvegicus [2]; tissue Blood): 0.67%
- ERYTHROCYTE COUNT (Rattus norvegicus [2]; tissue Blood): 5.87 x10E6/uL
- HEMATOCRIT (Rattus norvegicus [2]; tissue Blood): 36.6%
- HEMOGLOBIN (Rattus norvegicus [2]; tissue Blood): 13.33 G/DL
- LEUKOCYTE COUNT (Rattus norvegicus [2]; tissue Blood): 21.2 x10E3/uL
- LYMPHOCYTE (Rattus norvegicus [2]; tissue Blood): 82.67%
- MEAN CORPUSCULAR HEMOGLOBIN (Rattus norvegicus [2]; tissue Blood): 22.73 pg
- MEAN CORPUSCULAR HEMOGLOBIN CONCENTRATION (Rattus norvegicus [2]; tissue Blood): 36.47 G/DL
- MEAN CORPUSCULAR VOLUME (Rattus norvegicus [2]; tissue Blood): 62.43 fL
- MONOCYTE (Rattus norvegicus [2]; tissue Blood): 1.33%
- NEUTROPHIL (Rattus norvegicus [2]; tissue Blood): 15.33%
- NUCLEATED RED BLOOD CELLS (Rattus norvegicus [2]; tissue Blood): 0 /100WBC
- PLATELET COUNT (Rattus norvegicus [2]; tissue Blood): 1117.33 x10E3/uL
- ALANINE AMINOTRANSFERASE (Rattus norvegicus [2]; tissue Plasma): 51.67 u/L
- ALBUMIN (Rattus norvegicus [2]; tissue Plasma): 3.77 G/DL
- ALKALINE PHOSPHATASE (Rattus norvegicus [2]; tissue Plasma): 361.67 u/L
- ASPARTATE AMINOTRANSFERASE (Rattus norvegicus [2]; tissue Plasma): 68.67 u/L
- BLOOD UREA NITROGEN (Rattus norvegicus [2]; tissue Plasma): 17.33 mg/dL
- CARBON DIOXIDE (Rattus norvegicus [2]; tissue Plasma): 31.33 mmol/L
- CHLORIDE (Rattus norvegicus [2]; tissue Plasma): 103 MEQ/L
- CHOLESTEROL (Rattus norvegicus [2]; tissue Plasma): 74.67 mg/dL
- CREATININE (Rattus norvegicus [2]; tissue Plasma): 0.18 mg/dL
- GLUCOSE (Rattus norvegicus [2]; tissue Plasma): 188.33 mg/dL
- LACTATE DEHYDROGENASE (Rattus norvegicus [2]; tissue Plasma): 139 u/L
- LIPASE (Rattus norvegicus [2]; tissue Plasma): 9.33 u/L
- PHOSPHORUS (Rattus norvegicus [2]; tissue Plasma): 12.77 mg/dL
- POTASSIUM (Rattus norvegicus [2]; tissue Plasma): 6.6 MEQ/L
- SODIUM (Rattus norvegicus [2]; tissue Plasma): 149.03 MEQ/L
- TOTAL BILIRUBIN (Rattus norvegicus [2]; tissue Plasma): 0.13 mg/dL
- TOTAL PROTEIN (Rattus norvegicus [2]; tissue Plasma): 6.1 G/DL
- URIC ACID (Rattus norvegicus [2]; tissue Plasma): 2.07 mg/dL
